From ChEMBL document CHEMBL3046244, “Efficient synthesis of piperazine-2,6-dione and 4-(1H-indole-2-carbonyl)piperazine-2,6-dione derivatives and their evaluation for anticancer activity” (2013)

Legend:
Format in all cases: functional
HepG2 = assay: Growth inhibition of Homo sapiens (human) HepG2 cells at 10 uM after 48 hr by SRB assay; conditions: HepG2, 48 h, read-out: GI
HCT-15 = assay: Growth inhibition of Homo sapiens (human) HCT15 cells at 10 uM after 48 hr by SRB assay; conditions: HCT-15, 48 h, read-out: GI
NCI-H522 = assay: Growth inhibition of Homo sapiens (human) NCI-H522 cells at 10 uM after 48 hr by SRB assay; conditions: NCI-H522, 48 h, read-out: GI
PA-1 = assay: Growth inhibition of Homo sapiens (human) PA1 cells at 10 uM after 48 hr by SRB assay; conditions: PA-1, 48 h, read-out: GI
T47D = assay: Growth inhibition of Homo sapiens (human) T47D cells at 10 uM after 48 hr by SRB assay; conditions: read-out: GI

Row | Structure (SMILES) | inhibition of growth at 10 µM (HepG2) [%] | inhibition of growth at 10 µM (HCT-15) [%] | inhibition of growth at 10 µM (NCI-H522) [%] | inhibition of growth at 10 µM (PA-1) [%] | inhibition of growth at 10 µM (T47D) [%]
1 | O=C(c1cc2ccccc2[nH]1)N1CC(=O)N(C2CCCCC2)C(=O)C1 | 25 | 30 | 6 | 40 | 7
2 | O=C(c1cc2ccccc2[nH]1)N1CC(=O)N(CCCn2ccnc2)C(=O)C1 | 34 | 7 | 0 | 17 | 0
3 | O=C(c1cc2ccccc2[nH]1)N1CC(=O)N(Cc2ccccn2)C(=O)C1 | 34 | 2 | 19 | 23 | 20
4 | O=C(c1cc2ccccc2[nH]1)N1CC(=O)N(Cc2cccnc2)C(=O)C1 | 17 | 14 | 4 | 13 | 12
5 | O=C(c1cc2ccccc2[nH]1)N1CC(=O)N(Cc2ccncc2)C(=O)C1 | 20 | 38 | 5 | 42 | 21
6 | O=C(c1cc2ccccc2[nH]1)N1CC(=O)N(CCN2CCOCC2)C(=O)C1 | 3 | 7 | 8 | 18 | 16
7 | O=C(c1cc2ccccc2[nH]1)N1CC(=O)N(Cc2cccs2)C(=O)C1 | 45 | 15 | 0 | 24 | 6
8 | O=C(c1cc2ccccc2[nH]1)N1CC(=O)N(CCc2cccs2)C(=O)C1 | 19 | 4 | 14 | 11 | 9
9 | O=C(c1cc2ccccc2[nH]1)N1CC(=O)N(Cc2ccco2)C(=O)C1 | 36 | 24 | 15 | 23 | 21
10 | O=C(c1cc2ccccc2[nH]1)N1CC(=O)N(CCN2CCCC2)C(=O)C1 | 30 | 17 | 31 | 29 | 16
11 | O=C1CCCN1CCCN1C(=O)CN(C(=O)c2cc3ccccc3[nH]2)CC1=O | 11 | 27 | 8 | 8 | 14
12 | O=C1CNCC(=O)N1C1CCCCC1 | 38 | 7 | 11 | 24 | 15
13 | O=C1CNCC(=O)N1CCCn1ccnc1 | 13 | 32 | 8 | 23 | 8
14 | O=C1CNCC(=O)N1Cc1ccccn1 | 31 | 1 | 8 | 17 | 16
15 | O=C1CNCC(=O)N1Cc1cccnc1 | 21 | 20 | 4 | 20 | 8
16 | O=C1CNCC(=O)N1Cc1ccncc1 | 25 | 33 | 8 | 27 | 4
17 | O=C1CNCC(=O)N1CCN1CCOCC1 | 38 | 4 | 9 | 37 | 1
18 | O=C1CNCC(=O)N1Cc1cccs1 | 29 | 4 | 15 | 18 | 8
19 | O=C1CNCC(=O)N1CCc1cccs1 | 24 | 25 | 21 | 15 | 16
20 | O=C1CNCC(=O)N1Cc1ccco1 | 21 | 30 | 7 | 26 | 4
21 | O=C1CNCC(=O)N1CCN1CCCC1 | 18 | 49 | 0 | 26 | 1
22 | O=C1CCCN1CCCN1C(=O)CNCC1=O | 40 | 19 | 21 | 25 | 21
23 | C[C@@H]1C[C@@H]([C@H](O)CC2CC(=O)NC(=O)C2)C(=O)[C@@H](C)C1 [CYCLOHEXIMIDE] | 26 | 16 | 15 | 34 | 11
24 | O=P1(N(CCCl)CCCl)NCCCO1 (stereo not given) [CYCLOPHOSPHAMIDE ANHYDROUS] | 18 | 12 | 11 | 12 | 26
25 | O=c1[nH]cc(F)c(=O)[nH]1 [FLUOROURACIL] | 18 | 19 | 24 | 22 | 15
